How the values were obtained:
[1] = system: Plasmodium falciparum; test: Antimalarial activity against multi-drug resistant Plasmodium falciparum K1 infected in human erythrocytes assessed as parasite growth inhibition incubated for 24 hrs by [G-3H]hypoxanthine uptake assay; assay type: functional, organism-based; settings: K1, Erythrocyte
[2] = Cytotoxicity against African green monkey Vero cells assessed as cell growth inhibition by GFP fluorescence based assay; assay type: toxicity; settings: African green monkey (Chlorocebus sabaeus)

C.C[C@H](CC[C@@H](OC(=O)[C@@H](C)CC(=O)C[C@@H](C)[C@H]1C[C@@H](O)[C@@]2(C)C3=C(C(=O)C[C@]12C)[C@@]1(C)CC[C@@H](O)C(C)(C)[C@@H]1CC3=O)[C@@](C)(O)CO)[C@H]1CC[C@@]2(C)C3=CC[C@H]4C(C)(C)C(=O)CC[C@]4(C)C3=CC[C@]12C
IC50 [1]: 1.3 µM
IC50 [2]: 9.2 µM

C[C@H](CC(=O)C[C@H](C)C(=O)OC[C@@](C)(O)[C@@H](O)CC[C@@H](C)[C@H]1C[C@H](O)[C@@]2(C)C3=C(CC[C@]12C)[C@@]1(C)CCC(=O)C(C)(C)[C@@H]1CC3)[C@H]1C[C@@H](O)[C@@]2(C)C3=C(C(=O)C[C@]12C)[C@@]1(C)CCC(=O)C(C)(C)[C@@H]1CC3=O
IC50 [1]: 0.035 µM
IC50 [2]: 19 µM

C[C@H](CC(=O)C[C@H](C)C(=O)O)[C@H]1C[C@H](O)[C@@]2(C)C3=C(C(=O)C[C@]12C)[C@@]1(C)CCC(=O)C(C)(C)[C@@H]1CC3
IC50 [1]: > 20 µM
IC50 [2]: > 100 µM

C[C@H](CC[C@H](OC(=O)[C@@H](C)CC(=O)C[C@@H](C)[C@H]1C[C@@H](O)[C@@]2(C)C3=C(C(=O)C[C@]12C)[C@@]1(C)CC[C@@H](O)C(C)(C)[C@@H]1CC3=O)[C@](C)(O)CO)[C@H]1CC[C@@]2(C)C3=C(CC[C@]12C)[C@@]1(C)CCC(=O)C(C)(C)[C@@H]1C[C@H]3O
IC50 [1]: 0.39 µM
IC50 [2]: 2.3 µM

C[C@H](CC[C@H](O)[C@](C)(O)COC(=O)[C@@H](C)CC(=O)C[C@@H](C)[C@H]1C[C@@H](O)[C@@]2(C)C3=C(C(=O)C[C@]12C)[C@@]1(C)CCC(=O)C(C)(C)[C@@H]1CC3=O)[C@H]1CC[C@@]2(C)C3=CC[C@H]4C(C)(C)C(=O)CC[C@]4(C)C3=CC[C@]12C
IC50 [1]: 0.77 µM
IC50 [2]: > 52 µM

Cc1c2ccncc2c(C)c2c1[nH]c1ccccc12 [ELLIPTECINE]
IC50 [2]: 2.9 µM

C[C@H]1[C@@H](O)O[C@@H]2O[C@@]3(C)CC[C@H]4[C@H](C)CC[C@@H]1[C@@]24OO3 [ARTENIMOL]
IC50 [1]: 0.002 µM

C[C@H](CC[C@@H](O)[C@@](C)(O)COC(=O)[C@@H](C)CC(=O)C[C@@H](C)[C@H]1C[C@@H](O)[C@@]2(C)C3=C(C(=O)C[C@]12C)[C@@]1(C)CCC(=O)C(C)(C)[C@@H]1CC3=O)[C@H]1CC[C@@]2(C)C3=CC[C@H]4C(C)(C)C(=O)CC[C@]4(C)C3=CC[C@]12C
IC50 [1]: 1.09 µM
IC50 [2]: > 52 µM

C[C@H](CC(=O)C[C@H](C)C(=O)O)[C@H]1C[C@H](O)[C@@]2(C)C3=C(C(=O)C[C@]12C)[C@@]1(C)CCC(=O)C(C)(C)[C@@H]1CC3=O
IC50 [1]: > 19 µM
IC50 [2]: > 97 µM

C[C@H](CC(=O)C[C@H](C)C(=O)O)[C@H]1C[C@H](O)[C@@]2(C)C3=C(C(=O)C[C@]12C)[C@@]1(C)CC[C@@H](O)C(C)(C)[C@@H]1CC3
IC50 [1]: > 20 µM
IC50 [2]: > 100 µM

C[C@H](CC[C@@H](OC(=O)[C@@H](C)CC(=O)C[C@@H](C)[C@H]1C[C@@H](O)[C@@]2(C)C3=C(C(=O)C[C@]12C)[C@@]1(C)CC[C@@H](O)C(C)(C)[C@@H]1CC3=O)[C@@](C)(O)CO)[C@H]1CC[C@@]2(C)C3=C(CC[C@]12C)[C@@]1(C)CCC(=O)C(C)(C)[C@@H]1C[C@H]3O
IC50 [1]: 0.67 µM
IC50 [2]: 17 µM

C[C@H](CC(=O)C[C@H](C)C(=O)O)[C@H]1C[C@H](O)[C@@]2(C)C3=C(C(=O)C[C@]12C)[C@@]1(C)CCC(=O)C(C)(C)[C@@H]1C[C@H]3O
IC50 [1]: 19 µM
IC50 [2]: > 97 µM

C[C@H](CC[C@@H](O)[C@@](C)(O)CO)[C@H]1CC[C@@]2(C)C3=CC[C@H]4C(C)(C)C(=O)CC[C@]4(C)C3=CC[C@]12C
IC50 [1]: > 21 µM
IC50 [2]: > 106 µM

C[C@H](CC(=O)C[C@@H](C)[C@H]1C[C@@H](O)[C@@]2(C)C3=C(C(=O)C[C@]12C)[C@@]1(C)CCC(=O)C(C)(C)[C@@H]1CC3=O)C(=O)O[C@H](CC[C@@H](C)[C@H]1CC[C@@]2(C)C3=CC[C@H]4C(C)(C)C(=O)CC[C@]4(C)C3=CC[C@]12C)[C@@](C)(O)CO
IC50 [1]: 2.33 µM
IC50 [2]: 9 µM

C[C@H](CC(=O)C[C@H](C)C(=O)O[C@@H](CC[C@@H](C)[C@H]1C[C@H](O)[C@@]2(C)C3=C(CC[C@]12C)[C@@]1(C)CCC(=O)C(C)(C)[C@@H]1CC3)[C@](C)(O)CO)[C@H]1C[C@@H](O)[C@@]2(C)C3=C(C(=O)C[C@]12C)[C@@]1(C)CCC(=O)C(C)(C)[C@@H]1CC3=O
IC50 [1]: 0.057 µM
IC50 [2]: 8.1 µM

C[C@H](CC(=O)C[C@H](C)C(=O)O[C@@H](CC[C@@H](C)[C@H]1C[C@H](O)[C@@]2(C)C3=C(CC[C@]12C)[C@@]1(C)CCC(=O)C(C)(C)[C@@H]1CC3)[C@](C)(O)CO)[C@H]1C[C@@H](O)[C@@]2(C)C3=C(C(=O)C[C@]12C)[C@@]1(C)CC[C@@H](O)C(C)(C)[C@@H]1CC3=O
IC50 [1]: 0.23 µM
IC50 [2]: 13 µM

C[C@H](CC[C@H](O)[C@](C)(O)COC(=O)[C@@H](C)CC(=O)C[C@@H](C)[C@H]1C[C@@H](O)[C@@]2(C)C3=C(C(=O)C[C@]12C)[C@@]1(C)CC[C@@H](O)C(C)(C)[C@@H]1CC3=O)[C@H]1CC[C@@]2(C)C3=CC[C@H]4C(C)(C)C(=O)CC[C@]4(C)C3=CC[C@]12C
IC50 [1]: 3.3 µM
IC50 [2]: 24 µM

C[C@H](CC[C@H](O)[C@](C)(O)CO)[C@H]1CC[C@@]2(C)C3=CC[C@H]4C(C)(C)C(=O)CC[C@]4(C)C3=CC[C@]12C [GANODERMANONTRIOL]
IC50 [1]: > 21 µM
IC50 [2]: > 106 µM

C[C@H](CC(=O)C[C@H](C)C(=O)O)[C@H]1C[C@H](O)[C@@]2(C)C3=C(C(=O)C[C@]12C)[C@@]1(C)CC[C@@H](O)C(C)(C)[C@@H]1CC3=O
IC50 [1]: > 19 µM
IC50 [2]: > 97 µM
